# Values of other authors in paper PMC3532212 (PLoS ONE, 2012).
# Experiments:
# anesthetized guinea pigs = test system: anesthetized guinea pigs; design: method as in PMID 15642767; settings: i.v. bolus, highest tested dose 0.03 mg/kg/d; cited from earlier work
# Wistar rats = test system: Wistar rats; design: method as in PMID 17006328; settings: cited from earlier work
# disease-relevant model = test system: disease-relevant model; design: method as in PMID 15642767; settings: cited from earlier work
# mice = test system: mice; design: method as in PMID 14747617; settings: wild type mice; cited from earlier work
# S1P1 receptor = test system: S1P1 receptor; design: method as in PMID 15975516; settings: cited from earlier work
# [1] = test system: FTY720-induced bradycardia; design: method as in PMID 20097776; settings: in vivo; cited from earlier work
smiles,measurement,setting,value
NC(CO)(CO)CCc1ccc(Sc2cccc(OCc3ccccc3)c2)cc1Cl [KRP-203],effect on heart rate,anesthetized guinea pigs,no effect on heart rate
same,effect on heart rate,Wistar rats; 0.03 mg/kg,no effect on heart rate
same,"acute bradycardia, heart rate below baseline",Wistar rats; 0.1 and 0.3 mg/kg,~150 beats/min
same,efficacious dose in a disease-relevant model,disease-relevant model,0.1 to 1.0 mg/kg/day
"CCCCCCCCCCCCC/C=C/[C@@H](O)[C@@H](N)COP(=O)(O)O [S1P, Sphingosine-1-phospate]",effect on heart rate,mice,reductions in heart rate
FC(F)(F)c1cccc(-c2noc(-c3cc(-c4ccccc4)c(C(F)(F)F)s3)n2)c1 [SEW2871],S1P1 receptor internalization,S1P1 receptor,elicit S1P1 receptor internalization
CC(C)(C)C(=O)C(=Nc1ccc(Cl)cc1)NNc1ccc(Cl)cc1 [TY-52156],effect on FTY720-induced bradycardia,[1],partially inhibit
